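Step 1: Grow cells in 96-well plates. Step 2: Expose to compound for 48 hours at 5 concentrations. Step 3: Interpolate endpoints linearly; if unreached, use highest concentration. GI50 marks 50% less growth.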 Activity calls are given as the source filed them. Rule as the data show it: active = GI50 up to about 1.1 µM and inactive = higher.
Tests used:
Assay in all cases: growth of human tumour cells (NCI), 48 h
CAKI-1 = tested on: CAKI-1
CCRF-CEM = tested on: CCRF-CEM
EKVX = tested on: EKVX
HCT-15 = tested on: HCT-15
IGROV-1 = tested on: IGROV-1
K562 = tested on: K562
LOX IMVI = tested on: LOX IMVI
M14 = tested on: M14
MCF7 = tested on: MCF7
MDA-MB-435 = tested on: MDA-MB-435
MDA-N = tested on: MDA-N
Malme-3M = tested on: Malme-3M
NCI-H460 = tested on: NCI-H460
NCI-H522 = tested on: NCI-H522
OVCAR-5 = tested on: OVCAR-5
PC-3 = tested on: PC-3
RXF 393 = tested on: RXF 393
SW-620 = tested on: SW-620
U-251 = tested on: U-251
UO-31 = tested on: UO-31

Cc1c(F)c(N)c2c(=O)cc(-c3ccc(N)c(F)c3)oc2c1F [AMINOFLAVONE]
GI50 (CAKI-1): < 0.0131 µM (active) | GI50 (CCRF-CEM): 28 µM (inactive) | GI50 (EKVX): 13.7 µM (inactive) | GI50 (HCT-15): 33.3 µM | GI50 (IGROV-1): 0.0723 µM (active) | GI50 (K562): 0.279 µM (active) | GI50 (LOX IMVI): 21.3 µM (inactive) | GI50 (M14): 57.3 µM (inactive) | GI50 (MCF7): 0.0156 µM (active) | GI50 (MDA-MB-435): 43.5 µM (inactive) | GI50 (MDA-N): 29.4 µM (inactive) | GI50 (Malme-3M): 33.5 µM (inactive) | GI50 (NCI-H460): 0.199 µM (active) | GI50 (NCI-H522): 9.71 µM (inactive) | GI50 (OVCAR-5): 0.15 µM (active) | GI50 (PC-3): 20.7 µM (inactive) | GI50 (RXF 393): 17 µM (inactive) | GI50 (SW-620): 0.0305 µM (active) | GI50 (U-251): 4.2 µM (inactive) | GI50 (UO-31): 5.33 µM (inactive)
